According to patent EP2862575B1, “APPLICATION OF PICEATANNOL-3'-O-B-D-GLUCOPYRANOSIDE IN PREPARATION OF MEDICAMENTS FOR IMPROVING MICROCIRCULATION BLOCK” (KPC Pharmaceuticals, Inc., priority 2012, dated 2013):

Assays:
human = assay: maximum tolerated dose for human calculated from animal doses; type: in vivo; conditions: calculated on the basis of a body weight of 60 kg from maximum tolerated dose of intramuscular and intravenous injection for animals
mice = assay: acute and long-term toxicity tests in mice; type: in vivo; conditions: administrated in a range of safe dose
[1] = solubility test (excess compound shaken to equilibrium, UV at 319 nm); type: physicochemical; conditions: 25±1°C, 72 h
Experimental: A series of solutions of gastrodin or hydroxypropyl-β-cyclodextrin or a mixture of gastrodin and hydroxypropyl-β-cyclodextrin were prepared in volumetric flasks according to the concentrations specified in the tables below. Excessive piceatannol-3'-o-β-d-glucopyranoside was added to the solutions prepared above, which were then shaken at 25±1°C in a thermostatic water bath continuously for 72 h until equilibrium was reached. The solutions were precisely taken out and filtered through a 0.45µm filter. The filtered solutions were diluted to prepare test solutions containing 6µg piceatannol-3'-o-β-d-glucopyranoside per milliliter. Appropriate amount of control sample was precisely weighed out, dissolved in water and diluted to prepare a control solution. The absorbance values of both types of solutions were measured at 319 nm using UV spectrophotometry, from which the solubility can be calculated. The test results of solubility can be seen in the tables below: […]

beagle dog = assay: acute toxicity test, gastric gavage, beagle dog; conditions: within 24 h
mouse = assay: acute toxicity test, gastric gavage, mouse; conditions: within 24 h

OCc1ccc(O[C@@H]2O[C@H](CO)[C@@H](O)[C@H](O)[C@H]2O)cc1 [Gastrodin, 4-hydroxymethylphenyl-β-D-glucopyranoside hemihydrate]
maximum tolerated dose for human (human): 33.249 g

OC[C@H]1O[C@@H](Oc2cc(/C=C/c3cc(O)cc(O)c3)ccc2O)[C@H](O)[C@@H](O)[C@@H]1O [piceatannol-3'-o-β-d-glucopyranoside]
toxic effect (mice): no toxic effect observed
Solubility of piceatannol-3'-o-β-d-glucopyranoside ([1]; Gastrodin 45 % + Hydroxypropyl-β-cyclodextrin 3 %): 186.789 mg/mL
Solubility of piceatannol-3'-o-β-d-glucopyranoside ([1]; Gastrodin 50 % + Hydroxypropyl-β-cyclodextrin 3 %): 188.029 mg/mL
Solubility of piceatannol-3'-o-β-d-glucopyranoside ([1]; Hydroxypropyl-β-cyclodextrin 45 %): 180.509 mg/mL
Solubility of piceatannol-3'-o-β-d-glucopyranoside ([1]; Hydroxypropyl-β-cyclodextrin 50 %): 183.10 mg/mL
chromosome aberration or mutagenesis (genotoxicity test): no chromosome aberration or mutagenesis observed
single maximum dosage given by gastric gavage (beagle dog): 5 g/kg.bw
single maximum dosage given by gastric gavage (mouse): 13.33 g/kg.bw
